Series [1] in a line: Case study: mood and behavior of a patient with Bipolar Affective Disorder NOS on aripiprazole. Format: in vivo, human. The following applies: person, BPAD NOS; aripiprazole 5 mg once daily; 2 weeks later. From the text: A person presented with behavioral problems.
The time of onset for childhood BPAD is frequently during the later years of the latency period, and typically includes rapid cycling, with disturbances in sleep, behavioral issues including aggression, grandiosity, and hyper-sexuality. At the time of evaluation, it was difficult to know if the patient also had co-occurring ADHD, combined subtype and Oppositional Defiant Disorder. Bipolar Affective Disorder, NOS appeared to be the more parsimonious diagnosis.
Additionally they were asked to keep a mood chart.

For series [2] the following is noted: cited from earlier work.
For series [3] the following is noted: metformin 500 mg twice daily together with aripiprazole, over a 3-month period.
The conditions of series [4]: person treated with GEODON; cited from earlier work.

The values that follow come from US20060246131A1, “Use of metformin to counteract weight gain associated with psychotropic medications” (priority 2005, published 2006).

Each structure is given as a SMILES string.

In the case of `O=C1CCc2ccc(OCCCCN3CCN(c4cccc(Cl)c4Cl)CC3)cc2N1` [aripiprazole, 7-[4-[4-(2,3-dichlorophenyl)-1-piperazinyl]butoxy]-3,4-dihydrocarbostyril], the “behavioral outcome on return visit” value in series [1] was “much more settled, with fewer outbursts, and no behavioral concerns”. Turning to `CN(C)C(=N)NC(=N)N.Cl` [Metformin hydrochloride, N,N-dimethylimidocarbonimidic diamide hydrochloride], the “pH of a 1% aqueous solution” value in series [2] is on record as 6.68. Regarding `CN(C)C(=N)N=C(N)N` [metformin, N,N-dimethylimidocarbonimidic diamide], the “Body Mass Index (BMI) after treatment” value in series [3] (BMI from 24.9) was 22.6. In series [3], the “decrease in body weight” value was “seven”.

For `O=C1Cc2cc(CCN3CCN(c4nsc5ccccc45)CC3)c(Cl)cc2N1` [GEODON], in series [4], the weight gain entry was “significant weight gain”.
